Results as given in US12491170B2, “Stable treprostinil prodrugs” (United Therapeutics Corporation, priority 2020, dated 2025).
Like-named read-outs stand apart in the source and are kept apart here.

Columns and labels:
[1] = Stability in human subcutaneous skin homogenate; settings: for AUC: human
Experimental: The pool of skin homogenate was prepared by combining equal volumes of three lots that were tested in the initial skin homogenate lot assessment experiments.
A stock solution of calcein-AM was first prepared at 5 mM in DMSO, followed by a serial dilution into methanol at a concentration of 100 μM. 495 μL of skin homogenate was thawed and warmed to 37° C. A 5 μL aliquot of the 100 μM calcein-AM solution was spiked into the skin homogenate, for a final calcein-AM dosing concentration of 1 μM. After briefly mixing, 150 μL aliquots were removed in triplicate and transferred to 96-well Falcon plates. The plates were placed onto a Thermomixer and maintained at 37° C., with gentle shaking for the duration of the experiment. At each time point (0, 15, 30, 60, and 120 minutes), the plate was removed from the Thermomixer and transferred to a FLUOstar® plate reader, and the formation of calcein (Sigma) was monitored by fluorescence (490/515 nm). Calibration standards of calcein were prepared in distilled water by serial dilutions of a calcein DMSO stock at final concentrations ranging from 1 μM to 1 nM. All samples and standards were read concurrently (Table 13).
For each of the test articles, 495 μL of skin homogenate was added to triplicate centrifuge tubes. To each tube, 5 μL of a 100 μM solution of test article was added, for a final test article dosing concentration of 1 μM. The tubes were placed onto a Thermomixer and maintained at 37° C. with gentle shaking for the duration of the experiment. At each time point (0, 30, 60, and 120 minutes), a 100 μL aliquot was removed from each tube and combined with 200 μL of acetonitrile to stop the stability reaction. The tubes were mixed and centrifuged at 3000 rpm for 10 minutes. Aliquots of supernatant were removed and diluted 1:1 with distilled water containing internal standard (2 μM treprostinil-d4). Calibration standards for the treprostinil analysis were prepared for each test article in a surrogate matrix (supernatant from a mixture of 1:2 human plasma:acetonitrile), at concentrations ranging from 1 μM to 1 nM. Calibration standards were also diluted 1:1 with distilled water containing internal standard. The disappearance of each individual test article was monitored, as well as the formation of treprostinil (Table 14 and Table 15).

[2] = rat
[3] = Stability in liver microsomes, human; settings: for AUC: human
[4] = Stability in liver microsomes, rat
[5] = dog
[6] = Stability in liver microsomes, dog
[7] = Stability in cryopreserved hepatocytes, dog; settings: for AUC: dog
[8] = Stability in cryopreserved hepatocytes, human; settings: for AUC: human
[9] = Stability in cryopreserved hepatocytes, rat; settings: for AUC: rat

Trep Concentration 0 min [1]	Trep Concentration 30 min [1]	AUC [2]	Trep Concentration 0 min [3]	Trep Concentration 10 min [3]	Trep Concentration 20 min [3]	Trep Concentration 30 min [3]	Trep Concentration 60 min [3]	AUC [3]	Trep Concentration 0 min [4]	Trep Concentration 10 min [4]	Trep Concentration 20 min [4]	Trep Concentration 30 min [4]	Trep Concentration 60 min [4]	AUC [5]	Trep Concentration 0 min [6]	Trep Concentration 10 min [6]	Trep Concentration 20 min [6]	Trep Concentration 30 min [6]	Trep Concentration 60 min [6]	SMILES	also measured
0 µM	0.17 µM	54.90 µmol·min/L	0.69 µM	0.6 µM	0.49 µM	0.41 µM	0.25 µM	26.30 µmol·min/L	0.98 µM	0.97 µM	0.92 µM	0.91 µM	0.86 µM	56.90 µmol·min/L	0.66 µM	0.95 µM	1.01 µM	1.01 µM	0.92 µM	CCCCCC(CCC1C(O)CC2Cc3c(cccc3OCC(=O)O)CC21)OC(=O)OCC (centres unmarked) [XVI]	Trep Concentration 60 min [1]: 0.31 µM; Trep Concentration 120 min [1]: 0.53 µM; AUC [1]: 34.95 µmol·min/L
0.0159 µM	0.0165 µM	1.47 µmol·min/L	0.0216 µM	0.0336 µM	0.0343 µM	0.0459 µM	0.0354 µM	2.24 µmol·min/L	0.0196 µM	0.0177 µM	0.024 µM	0.0274 µM	0.0271 µM	1.33 µmol·min/L	0.0189 µM	0.0224 µM	0.0209 µM		0.0222 µM	CCCCCC(O)CCC1C(OC)CC2Cc3c(cccc3OCC(=O)O)CC21 (centres unmarked) [LIII]	Trep Concentration 60 min [1]: 0.0165 µM; AUC [1]: 1.99 µmol·min/L
0 µM	0 µM	0.00 µmol·min/L	0 µM	0 µM	0 µM	0 µM	0 µM	0.00 µmol·min/L	0 µM	0 µM	0 µM	0 µM	0 µM	0.00 µmol·min/L	0 µM	0 µM	0 µM	0 µM	0 µM	CCCCCC(CCC1C(O)CC2Cc3c(cccc3OCC(=O)O)CC21)OC(=O)NCC(=O)O (centres unmarked) [XXXVIII]	Trep Concentration 60 min [1]: 0 µM; Trep Concentration 120 min [1]: 0 µM; AUC [1]: 0.00 µmol·min/L
0 µM	0 µM	0.00 µmol·min/L	0 µM	0 µM	0 µM	0 µM	0 µM	0.00 µmol·min/L	0 µM	0 µM	0 µM	0 µM	0 µM	0.00 µmol·min/L	0 µM	0 µM	0 µM	0 µM	0 µM	CCCCCC(CCC1C(O)CC2Cc3c(cccc3OCC(=O)O)CC21)OC(=O)OCC(=O)O (centres unmarked) [XXXIX]	Trep Concentration 60 min [1]: 0 µM; Trep Concentration 120 min [1]: 0 µM; AUC [1]: 0.00 µmol·min/L
		0.00 µmol·min/L	0 µM	0 µM	0 µM	0 µM	0 µM	0.00 µmol·min/L	0 µM	0 µM	0 µM	0 µM	0 µM	0.00 µmol·min/L	0 µM	0 µM	0 µM	0 µM	0 µM	CCCCCC(CCC1C(O)CC2Cc3c(cccc3OCC(=O)O)CC21)OCC(=O)O (centres unmarked) [LVII]	Trep Concentration (μM) 0 min [7]: 0 µM; Trep Concentration (μM) 15 min [7]: 0 µM; Trep Concentration (μM) 30 min [7]: 0 µM; Trep Concentration (μM) 60 min [7]: 0 µM; Trep Concentration (μM) 120 min [7]: 0 µM; AUC [7]: 0.00 µmol·min/L; Trep Concentration (μM) 0 min [8]: 0 µM; Trep Concentration (μM) 15 min [8]: 0 µM; Trep Concentration (μM) 30 min [8]: 0 µM; Trep Concentration (μM) 60 min [8]: 0 µM; Trep Concentration (μM) 120 min [8]: 0 µM; AUC [8]: 0.00 µmol·min/L; Trep Concentration (μM) 0 min [9]: 0 µM; Trep Concentration (μM) 15 min [9]: 0 µM; Trep Concentration (μM) 30 min [9]: 0 µM; Trep Concentration (μM) 60 min [9]: 0 µM; Trep Concentration (μM) 120 min [9]: 0 µM; AUC [9]: 0.00 µmol·min/L
		0.00 µmol·min/L	0 µM	0 µM	0 µM	0 µM	0 µM	0.00 µmol·min/L	0 µM	0 µM	0 µM	0 µM	0 µM	0.11 µmol·min/L	0 µM	0 µM	0.00553 µM	0.003 µM	0 µM	CCCCCC1CCC2C(CC3Cc4c(cccc4OCC(=O)O)CC32)OP(=O)(Oc2ccccc2)O1 (mixture of isomers) [XXVIII]	Trep Concentration (μM) 0 min [7]: 0 µM; Trep Concentration (μM) 15 min [7]: 0 µM; Trep Concentration (μM) 30 min [7]: 0 µM; Trep Concentration (μM) 60 min [7]: 0 µM; Trep Concentration (μM) 120 min [7]: 0.00339 µM; AUC [7]: 0.10 µmol·min/L; Trep Concentration (μM) 0 min [8]: 0 µM; Trep Concentration (μM) 15 min [8]: 0 µM; Trep Concentration (μM) 30 min [8]: 0 µM; Trep Concentration (μM) 60 min [8]: 0 µM; Trep Concentration (μM) 120 min [8]: 0 µM; AUC [8]: 0.00 µmol·min/L; Trep Concentration (μM) 0 min [9]: 0 µM; Trep Concentration (μM) 15 min [9]: 0 µM; Trep Concentration (μM) 30 min [9]: 0 µM; Trep Concentration (μM) 60 min [9]: 0 µM; Trep Concentration (μM) 120 min [9]: 0 µM; AUC [9]: 0.00 µmol·min/L
		0.26 µmol·min/L	0.0131 µM	0.0155 µM		0.0168 µM	0.0141 µM	0.94 µmol·min/L	0 µM	0.00332 µM	0.00368 µM	0.00422 µM	0.00722 µM	0.17 µmol·min/L	0 µM	0 µM	0 µM	0.00396 µM	0.00602 µM	CCCCCC(CCC1C(O)CC2Cc3c(cccc3OCC(=O)O)CC21)OC(=O)c1ccc(O)c(O)c1 (centres unmarked) [LXVI]	Trep Concentration (μM) 0 min [7]: 0 µM; Trep Concentration (μM) 15 min [7]: 0 µM; Trep Concentration (μM) 30 min [7]: 0 µM; Trep Concentration (μM) 60 min [7]: 0 µM; Trep Concentration (μM) 120 min [7]: 0.00519 µM; AUC [7]: 0.16 µmol·min/L; Trep Concentration (μM) 0 min [8]: 0 µM; Trep Concentration (μM) 15 min [8]: 0.0209 µM; Trep Concentration (μM) 30 min [8]: 0.0147 µM; Trep Concentration (μM) 60 min [8]: 0.0184 µM; Trep Concentration (μM) 120 min [8]: 0.0237 µM; AUC [8]: 2.18 µmol·min/L; Trep Concentration (μM) 0 min [9]: 0 µM; Trep Concentration (μM) 15 min [9]: 0 µM; Trep Concentration (μM) 30 min [9]: 0 µM; Trep Concentration (μM) 60 min [9]: 0 µM; Trep Concentration (μM) 120 min [9]: 0 µM; AUC [9]: 0.00 µmol·min/L
